Laboratory results reported in patent EP4104818A1, “OPHTHALMIC COMPOSITION COMPRISING XANTHOHUMOL” (Skeye Pharma GbR, priority 2021, dated 2022).

Legend:
[1] = test system: human corneal epithelial cells; experiment: cells; format: cell-based; details: Corneal epithelial cell, 24 h, read-out: cell viability
Protocol: Human corneal epithelial cells (hCEC; SCCE016; Merck Millipore, Burlington, MA, USA) were cultured in corneal epithelial cell growth medium with supplement mix (LGC Standards, Teddington, United Kingdom). Approximately 10,000 hCECs were seeded onto each well of a 96-well cell-culture dishes (NUNC, Langenselbold, Germany). Confluent cells were used for Water-soluble tetrazolium salt (WST-1) cell proliferation assays (Hoffmann-La Roche AG, Basel, Switzerland). After 24 hours of incubation with 100 µl of corneal epithelial cell growth medium without its supplement mix (LGC Standards, Teddington, United Kingdom), hCECs were treated with different concentrations of xanthohumol (XH; Selleckchem, Houston, TX, USA) dissolved in dimethyl sulfoxide (DMSO; Carl Roth AG, Karlsruhe, Germany). Control groups were treated with DMSO only. Following another 72 hours of incubation, the cells were incubated with the WST-1 solution for 30 minutes. Substrate turnover was measured with an ELISA reader at 450 nm (Spectramax 190; Molecular Devices, Sunnyvale, CA, USA) and a reference at 690 nm. To determine potential anti-oxidative effects of xanthohumol, hCECs were incubated and treated analogous to the above-mentioned WST-1 cell proliferation assay with minor modifications. […] Following another incubation of the hCECs for 24 hours, the WST-1 assay was further finalized according to the description above.

[2] = test system: Intracellular, mitochondrial reactive oxygen species (ROS); experiment: Dihydrorhodamine-123 (DHR-123) assay of intracellular ROS; format: cell-based; details: Homo sapiens, HCEC, 2 hours
Protocol: Intracellular, mitochondrial reactive oxygen species (ROS) were assessed using the cell membrane permeable dihydrorhodamine-123 (DHR-123) assay (D23806; ThermoFisher Scientific, Waltham, MA, USA) according to the manufacturer's instructions. Measurements were made after exposing human corneal epithelial cells to H2O2, xanthohumol or DMSO only for 2 hours. For ROS staining, cells were incubated with 10 µM DHR-123 for 15 minutes. Nucleus staining was performed using Hoechst 33342 nucleic acid stain (H1399; ThermoFisher Scientific, Waltham, MA, USA). Randomly, a minimum of 3 images of every treatment group were acquired with a 20x fluorescence objective using the aforementioned Axio Observer 7. Results were expressed in percent of fluorescence intensity relative to the baseline measurement in the DMSO control group. For quantification of the fluorescence signals, the microscope software ZEN 3.0 (Carl Zeiss AG, Jena, Germany) was used.

[3] = test system: Human corneal epithelial cells (hCEC); experiment: WST-1 cell viability assay; format: cell-based; details: 72 hours of incubation, hCECs, compared to the DMSO-treated control group
Protocol: Human corneal epithelial cells (hCEC; SCCE016; Merck Millipore, Burlington, MA, USA) were cultured in corneal epithelial cell growth medium with supplement mix (LGC Standards, Teddington, United Kingdom). Approximately 10,000 hCECs were seeded onto each well of a 96-well cell-culture dishes (NUNC, Langenselbold, Germany). Confluent cells were used for Water-soluble tetrazolium salt (WST-1) cell proliferation assays (Hoffmann-La Roche AG, Basel, Switzerland). After 24 hours of incubation with 100 µl of corneal epithelial cell growth medium without its supplement mix (LGC Standards, Teddington, United Kingdom), hCECs were treated with different concentrations of xanthohumol (XH; Selleckchem, Houston, TX, USA) dissolved in dimethyl sulfoxide (DMSO; Carl Roth AG, Karlsruhe, Germany). Control groups were treated with DMSO only. Following another 72 hours of incubation, the cells were incubated with the WST-1 solution for 30 minutes. Substrate turnover was measured with an ELISA reader at 450 nm (Spectramax 190; Molecular Devices, Sunnyvale, CA, USA) and a reference at 690 nm.

hCEC [4] = experiment: BrdU cell proliferation ELISA; format: cell-based; details: Homo sapiens, 24 hours, hCECs, no significant change
Protocol: Proliferation of hCEC was determined using a 5-bromo-2'-deoxyuridine (BrdU) ELISA in accordance with the manufacturers' recommendations (Merck KGaA, Darmstadt, Germany). In brief, approximately 7,000 cells were seeded onto a 96-well cell culture plat e and incubated for 24h to achieve complete adherence of the cells. After 24 hours of incubation with 100 µl of corneal epithelial cell growth medium without its' supplement mix, hCECs were treated with xanthohumol dissolved in DMSO. Following another 24 hours of incubation with BrdU labeling solution, cells were fixed and incubated with anti-BrdU antibodies according to the manufacturer's recommendations. BrdU incorporation into the DNA of hCECs was quantified by absorbance measurement at 450 nm.

hCEC [5] = experiment: Cell scratch assay (hCEC migration / wound healing in vitro); format: cell-based, Human
Protocol: To analyze hCEC migration in vitro, cells were cultured in corneal epithelial cell growth medium with supplement mix until confluence of the cells of a 6-well cell culture plate. Following an incubation period of 24 hours in cell culture medium without supplements, 5 linear scratches were performed in each well using a 200 µl pipette tip (Eppendorf AG, Hamburg, Germany). The hCECs were then incubated prospectively under treatment with xanthohumol or DMSO as a control for up to 72 hours. Reference images were acquired at the beginning of the incubation period using the phase contrast mode on an Axio Observer 7 (Carl Zeiss AG, Jena, Germany). Every 24 hours, follow-up images of 4-5 different scratch sections were acquired. The size of the wound area was analyzed using a semi-automated analysis tool in ImageJ 1.53a (National Institute of Health, Bethesda, MD, USA).

bovine corneas = experiment: Corneal erosion assay on bovine corneas ex vivo; details: up to 72 hours, every 12 hours, compared to the DMSO-treated control group
Protocol: Furthermore, corneal epithelial cell wound healing was determined on bovine corneas ex vivo. Bovine globes were obtained from a local butchery following approval by the authority for waste management of animal carcasses (ID: DE 09 162 0066-219) and processed within 12 hours post-mortem. The bovine globes were washed in 10% w/v povidone-iodine for 5 minutes. A circular corneal epithelial erosion was created using an 8 mm trephine and a hockey knife (Katena Products Inc., Parsippany, NJ, USA). Subsequently, a sclerocorneal ring was excised with eye scissors (Katena Products Inc., Parsippany, NJ, USA) and transferred to a 60 mm cell culture plate. To acquire reference images of the corneal erosion, the wound area was stained with a 0.8 mg/ml fluorescein sodium solution and illuminated with blue light (approximate wavelength 490 nm). Images were acquired using a distance-fixed digital single lens reflex camera equipped with a macro lens (Canon Inc., Tokyo, Japan). Consequently, the sclerocorneal rings were incubated in Dulbecco's Modified Eagle's Medium (Bio&SELL GmbH, Feucht, Germany) supplemented with 50 IU penicillin/ml and 50 µg streptomycin/ml (Merck Millipore, Burlington, MA, USA) and xanthohumol or DMSO only. Follow-up images were acquired every 12 hours, the cell culture medium was renewed daily.

Compound | viability at 100 µM [1] | activity at 100 µM ([2]; H2O2 100 µM only, compared to the control group, read-out: DHE-123 fluorescence) | viability at 1 µM ([3]; 1 µM) | viability at 2.5 µM ([3]; 2.5 µM) | viability at 5 µM ([3]; 5 µM, not significant) | activity at 1 µM (hCEC [4]; 1 µM) | activity at 2.5 µM (hCEC [4]; 2.5 µM) | activity at 5 µM (hCEC [4]; 5 µM) | wound area (hCEC [5]; 1 µM, 72 hours of incubation, control group 73 ± 9%) | wound area (hCEC [5]; 2.5 µM, 72 hours of incubation, control group 73 ± 9%) | wound area (hCEC [5]; 2.5 µM, after 48 hours, control group 76 ± 7%) | speed of re-epithelialization (bovine corneas; 1 µM) | speed of re-epithelialization (bovine corneas; 2.5 µM) | viability at 1 µM [1] | viability at 2.5 µM [1] | activity at 1 µM ([2]; 1 µM xanthohumol with H2O2 100 µM, relative to the DMSO control group, read-out: DHR-123 fluorescence) | activity at 2.5 µM ([2]; 2.5 µM xanthohumol with H2O2 100 µM, relative to the DMSO control group, read-out: DHR-123 fluorescence)
OO [H2O2, hydrogen peroxide, reference compound] | 79 ± 14% | 149 ± 9% | – | – | – | – | – | – | – | – | – | – | – | – | – | – | –
COc1cc(O)c(CC=C(C)C)c(O)c1C(=O)/C=C/c1ccc(O)cc1 [xanthohumol, 1-[2,4-Dihydroxy-6-methoxy-3-(3-methyl-but-2-enyl)-phenyl]-3-(4-hydroxyphenyl)-propenon] | – | – | 144 ± 26% | 127 ± 11% | 121 ± 24% | 112 ± 26% | 107 ± 16% | 95 ± 8% | 63 ± 14% | 58 ± 18% | 66 ± 11% | did not show any significant difference | did not show any significant difference | 91 ± 11% | 96 ± 4% | 97 ± 16% | 95 ± 26%
